Reference: US9980943B2, “Methods of treating muscular dystrophy” (BOARD OF REGENTS OF THE NEVADA SYSTEM OF HIGHER EDUCATION, …, priority 2013, dated 2018)

Legend:
Format in all cases: cell-based, mouse
[1] = system: α7 integrin (LacZ reporter in α7βgal+/− myoblasts); assay: Myoblast α7+/LacZ integrin FDG assay (Burkin assay in myoblasts, 96-well); conditions: α7+/LacZ myoblasts, 96-well
[2] = system: α7 integrin (LacZ reporter in α7+/LacZ myotubes); assay: Myotube α7 integrin FDG assay (Burkin assay in myotubes, 96-well); conditions: myotubes
[3] = system: β-galactosidase in CMV-LacZ C2C12 myotubes; assay: CMV-LacZ secondary screen in C2C12 myotubes (β-Gal stabilizing assay); conditions: for CMV-LACZ in Myotubes (β-galactosidase activity relative to DMSO): CMV-LacZ C2C12 myotubes, 96-well format
How it was run: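 β-Gal level was the read-out, measured in a clonal C2C12 line expressing LacZ from a CMV promoter. Dose-response curves used six concentrations, 0.5 μM up to 40 μM, with duplicate points.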

[4] = 5 uM, C2C12 CMV-LacZ myotubes, fold relative to DMSO
[5] = 10 uM, C2C12 CMV-LacZ myotubes, fold relative to DMSO
[6] = 20 uM, C2C12 CMV-LacZ myotubes, fold relative to DMSO
[7] = 40 uM, C2C12 CMV-LacZ myotubes, fold relative to DMSO

Compound	CMV-LACZ in Myotubes, signal relative to DMSO [3, 4]	CMV-LACZ in Myotubes, signal relative to DMSO [3, 5]	CMV-LACZ in Myotubes, signal relative to DMSO [3, 6]	CMV-LACZ in Myotubes, signal relative to DMSO [3, 7]	Burkin Assay in Myoblasts, value relative to DMSO ([1]; 0.5 uM)	Burkin Assay in Myoblasts, value relative to DMSO ([1]; 1 uM)	Burkin Assay in Myoblasts, value relative to DMSO ([1]; 5 uM)	Burkin Assay in Myoblasts, value relative to DMSO ([1]; 10 uM)	Burkin Assay in Myoblasts, value relative to DMSO ([1]; 20 uM)	Burkin Assay in Myoblasts, value relative to DMSO ([1]; 40 uM)	Burkin Assay in Myotubes (signal relative to DMSO) ([2]; 0.5 uM)	Burkin Assay in Myotubes (signal relative to DMSO) ([2]; 1 uM)	Burkin Assay in Myotubes (signal relative to DMSO) ([2]; 5 uM)	Burkin Assay in Myotubes (signal relative to DMSO) ([2]; 10 uM)	Burkin Assay in Myotubes (signal relative to DMSO) ([2]; 20 uM)	Burkin Assay in Myotubes (signal relative to DMSO) ([2]; 40 uM)	other results
COc1ccc(NC(=O)c2ccc3nc(C)sc3c2)cc1 [MLS001204005-01]	–	–	–	–	–	–	–	–	–	–	–	–	–	–	–	–	fold induction at 0.5 µM ([1]; Mus musculus, Myoblast, 48 h, 0.5 uM, read-out: Burkin Assay in Myoblasts, value relative to DMSO): 1.08; fold induction at 1 µM ([1]; Mus musculus, Myoblast, 48 h, 1 uM, read-out: Burkin Assay in Myoblasts, value relative to DMSO): 1.15; fold induction at 5 µM ([1]; Mus musculus, Myoblast, 48 h, 5 uM, read-out: Burkin Assay in Myoblasts, value relative to DMSO): 1.02; fold induction at 10 µM ([1]; Mus musculus, Myoblast, 48 h, 10 uM, read-out: Burkin Assay in Myoblasts, value relative to DMSO): 1.24; fold induction at 20 µM ([1]; Mus musculus, Myoblast, 48 h, 20 uM, read-out: Burkin Assay in Myoblasts, value relative to DMSO): 1.23; fold induction at 40 µM ([1]; Mus musculus, Myoblast, 48 h, 40 uM, read-out: Burkin Assay in Myoblasts, value relative to DMSO): 1.17; fold induction at 0.5 µM ([2]; Mus musculus, Myotube, 0.5 uM, read-out: Burkin Assay in Myotubes (signal relative to DMSO)): 0.903; fold induction at 1 µM ([2]; Mus musculus, Myotube, 1 uM, read-out: Burkin Assay in Myotubes (signal relative to DMSO)): 0.987; fold induction at 5 µM ([2]; Mus musculus, Myotube, 5 uM, read-out: Burkin Assay in Myotubes (signal relative to DMSO)): 0.763; fold induction at 10 µM ([2]; Mus musculus, Myotube, 10 uM, read-out: Burkin Assay in Myotubes (signal relative to DMSO)): 1.02; fold induction at 20 µM ([2]; Mus musculus, Myotube, 20 uM, read-out: Burkin Assay in Myotubes (signal relative to DMSO)): 0.818; fold induction at 40 µM ([2]; Mus musculus, Myotube, 40 uM, read-out: Burkin Assay in Myotubes (signal relative to DMSO)): 1.16; fold induction at 5 µM ([3]; Mus musculus, C2C12, read-out: CMV-LACZ in Myotubes, signal relative to DMSO, 5 uM, C2C12 CMV-LacZ myotubes, fold relative to DMSO): 0.94; fold induction at 10 µM ([3]; Mus musculus, C2C12, read-out: CMV-LACZ in Myotubes, signal relative to DMSO, 10 uM, C2C12 CMV-LacZ myotubes, fold relative to DMSO): 1.14; fold induction at 20 µM ([3]; Mus musculus, C2C12, read-out: CMV-LACZ in Myotubes, signal relative to DMSO, 20 uM, C2C12 CMV-LacZ myotubes, fold relative to DMSO): 1.02; fold induction at 40 µM ([3]; Mus musculus, C2C12, read-out: CMV-LACZ in Myotubes, signal relative to DMSO, 40 uM, C2C12 CMV-LacZ myotubes, fold relative to DMSO): 0.781
NC(=O)c1cccnc1Oc1ccc(Cl)cc1Cl [MLS000861434-01]	0.8844	0.8027	0.8429	0.8381	–	–	–	–	–	–	–	–	–	–	–	–	Burkin Assay in Myoblasts, signal relative to DMSO ([1]; 0.5 uM): 0.9464; Burkin Assay in Myoblasts, signal relative to DMSO ([1]; 1 uM): 1.028; Burkin Assay in Myoblasts, signal relative to DMSO ([1]; 5 uM): 0.9133; Burkin Assay in Myoblasts, signal relative to DMSO ([1]; 10 uM): 0.9772; Burkin Assay in Myoblasts, signal relative to DMSO ([1]; 20 uM): 0.8777; Burkin Assay in Myoblasts, signal relative to DMSO ([1]; 40 uM): 0.9322; Burkin Assay in Myotubes, α7 integrin LacZ reporter signal relative to DMSO ([2]; 0.5 uM): 0.9593; Burkin Assay in Myotubes, α7 integrin LacZ reporter signal relative to DMSO ([2]; 1 uM): 1.066; Burkin Assay in Myotubes, α7 integrin LacZ reporter signal relative to DMSO ([2]; 5 uM): 0.9788; Burkin Assay in Myotubes, α7 integrin LacZ reporter signal relative to DMSO ([2]; 10 uM): 1.101; Burkin Assay in Myotubes, α7 integrin LacZ reporter signal relative to DMSO ([2]; 20 uM): 0.8762; Burkin Assay in Myotubes, α7 integrin LacZ reporter signal relative to DMSO ([2]; 40 uM): 1.058
C=CCN(CC=C)C(=O)c1ccc(OC2CCN(S(=O)(=O)N(C)C)CC2)cc1 [MLS000693729-01]	0.9722	1.057	0.9031	0.879	0.9069	0.7902	0.8647	0.9088	0.9136	0.9194	0.8219	0.7707	1.119	1.144	0.9682	1.056	–
Cc1ccccc1C(=O)Nc1nnc(SC(C)C)s1 [MLS000683174-01]	1.156	1.0866	1.035	1.238	1.02	0.9176	1.02	1.014	1.028	0.8059	1.145	0.9165	1.007	0.8907	1.081	0.9864	–
COc1ccc(CNC(=O)CCN2C(=O)c3ccccc3C2=O)cc1 [MLS001200980-01]	0.8782	0.9568	0.9272	1.0886	0.9918	0.9255	1.055	0.9544	0.9561	0.9201	1.0669	1.022	1.121	1.216	1.015	0.9712	–
CC(=O)Nc1ccc(NC(=O)[C@@H](NC(=O)c2cccc(C)c2)C(C)C)cc1 [MLS001176897-01]	–	–	–	–	0.9342	0.9456	0.9058	0.9978	0.9458	0.9475	0.9577	1.073	1.022	1.194	1.145	1.163	CMV-LACZ in Myotubes (β-galactosidase activity relative to DMSO) ([3]; 5 uM): 1.009; CMV-LACZ in Myotubes (β-galactosidase activity relative to DMSO) ([3]; 10 uM): 0.797; CMV-LACZ in Myotubes (β-galactosidase activity relative to DMSO) ([3]; 20 uM): 1.121; CMV-LACZ in Myotubes (β-galactosidase activity relative to DMSO) ([3]; 40 uM): 1.046
